{
  "source": "patent US10962508B2",
  "about": "“Ultrasound-based method and related system to evaluate hemostatic function of whole blood” (University of Virginia Patent Foundation, priority 2009, dated 2021)",
  "type_in_all_cases": "cell-based, human",
  "key": {"[1]": {"test_system": "fibrin polymerization in whole blood", "experiment": "Sonorheometry of whole blood: coagulation plasma factors and fibrin polymerization (GPRP titration)", "details": "kaolin-activated citrated whole blood, 5 volunteers; GPRP 0, 1, 2, 4, 8 mM", "method": "(§1) Blood samples were obtained from a peripheral vein of the arm of a patient into six 1.8 ml Vacutainers™ (Becton Dickinson, Franklin Lakes, N.J.) containing 3.2% (0.105M) sodium citrate to prevent coagulation within the tubes. The first tube was discarded, while the remaining tubes were placed on a rocker table and analyzed sequentially starting thirty minutes after the draw. For all the experiments described here, samples were obtained from a total of eight volunteers (four male and four female) with age range of twenty-three to thirty years (mean and standard deviation of 25.75±3.3 years) and with no history of thrombotic or hemorrhagic disorders. Ultrasound pulses having 10 Mhz center frequency were applied, PRF was adaptively adjusted with the range of about 25 Hz to about 12.8 kHz. Automated measurements having a one second acquisition time were performed every six seconds.\n(§2) In a typical experiment, 1 ml of citrated blood was pipetted into a 4 ml clear polystyrene cuvette 142 along with 0.5 mg of kaolin activator to start coagulation through activation of the intrinsic pathway and 62 μl of 0.2M CaCl2 to reverse the anticoagulant effect of the sodium citrate. Other reagents were also added as required by the specific study performed. Phosphate Buffer Saline (PBS) solution was added to maintain identical blood dilution. Sonorheometry data acquisition was initiated one minute after all the reagents were pipetted into the sample, and measurements were performed every six seconds.\nGly-Pro-Arg-Pro (GPRP) was obtained from Calbiochem (EMD Chemicals Inc., Gibbstown, N.J.) with 99.1% purity as determined by HPLC. GPRP was dissolved in PBS into 100 mM stock. Kaolin was obtained in powder form (Sigma Aldrich, St. Louis, Mo.) and suspended in sterile sodium chloride solution (Becton Dickinson, Franklin Lakes, N.J.). Monoclonal antibody abciximab (ReoPro®, Eli Lilly and Company, Indianapolis, Ind.) was obtained in a concentration of 2 mg/ml. The original solution was diluted by a factor of five by adding 200 μL of PBS into 50 μl of the original ReoPro solution. The serine protease abbokinase (urokinase-type Plasminogen Activator, or uPA, Hyphen Biomed, Neuville-sur-Oise, France) was obtained in a concentration of 1 unit/μl.\n(§3) The raw ultrasound data were transferred from the custom PCB 110 to the laptop computer 150 through USB interface 112 and analyzed in MATLAB (MathWorks Inc., Natick, Mass.). […]\n(§4) The sonorheometry parameters were calculated by fitting values 20 T to a sigmoidal curve 602 and evaluating the first derivative 30 of the curve 602, as shown in FIG. 8. For example, the clotting times TC1 and TC2 were calculated based on a threshold value of the derivative curve (20% of the minimum value), whereas the clotting slope CFR is the minimum of the derivative curve. […]"}, "[2]": {"test_system": "platelet aggregation in whole blood", "experiment": "Sonorheometry of whole blood: assessment of platelet function (abciximab titration)", "method": "as §1\nas §2, with “Sonorheometry data acquisition was initiated one minute after all the reagents were pipetted into the sample, and measurements were performed every six seconds.” left out\n(§5) Gly-Pro-Arg-Pro (GPRP) was obtained from Calbiochem (EMD Chemicals Inc., Gibbstown, N.J.) with 99.1% purity as determined by HPLC. […]\nas §3, §4"}, "[3]": {"test_system": "fibrinolysis of whole blood clot", "experiment": "Sonorheometry of whole blood: assessment of fibrinolytic proteins (urokinase titration)", "details": "urokinase 0, 100, 150, 200 Units per ml of blood", "method": "as §1\nas §2, with “Sonorheometry data acquisition was initiated one minute after all the reagents were pipetted into the sample, and measurements were performed every six seconds.” left out\nas §5, §3, §4"}, "[4]": {"details": "kaolin-activated citrated whole blood"}},
  "note": "Entries after “also recorded” stand apart in the source; their conditions may differ.",
  "data": [
    {"substance": "Gly-Pro-Arg-Pro [GPRP]", "values": [
      {"measurement": "clot formation rate CFR (rate of fibrin polymerization)", "setting": "[1]", "value": "decreased"},
      {"measurement": "final clotting time TC2", "setting": "[1]", "value": "increase with the concentration of GPRP"},
      {"measurement": "initial clotting time TC1", "setting": "[1]", "value": "increase with the concentration of GPRP"},
      {"measurement": "stiffness S (final stiffness of the formed clot)", "setting": "[1]", "value": "decreased"}
    ]},
    {"substance": "abciximab: monoclonal antibody; inhibitor of platelet aggregation blocking the IIb/IIIa receptor", "values": [
      {"measurement": "other parameters describing the dynamics of clot formation and dissolution", "setting": "[2]; abciximab 0, 2, 4, 6, 8, 12 μg/ml", "value": "did not change significantly"},
      {"measurement": "variation of final clot stiffness across the concentrations used", "setting": "[2]; abciximab 0 to 12 μg/ml", "value": "varied by over one order of magnitude"},
      {"measurement": "stiffness SMAX", "setting": "[2]; kaolin-activated citrated whole blood, five individuals, abciximab 0, 2, 4, 6, 8, 12 μg/ml", "value": "reduces the stiffness SMAX yielding a softer clot"}
    ]},
    {"substance": "urokinase", "values": [
      {"measurement": "clot lysis time TL1", "setting": "[3]; [4]", "value": "decreased as a function of urokinase concentration"},
      {"measurement": "clot lysis time TL2", "setting": "[3]; [4]", "value": "decreased as a function of urokinase concentration"},
      {"measurement": "return of blood sample to a viscous fluid (clot dissolution)", "setting": "[3]", "value": "returned to a viscous fluid significantly faster with increasing concentrations of urokinase; also recorded: rapidly dissolved the blood clot and restored the original mechanical conditions prior to clot formation"}
    ]}
  ]
}
